The test system of experiment [1] is sleep disturbance in PTSD. As to conditions: administered at bedtime; cited from earlier work.
The subject of experiment [2] is PTSD symptoms. As to conditions: 1 to 4 mg orally at bedtime, alone or with sertraline or prazosin, started within one week of the trauma.
Experiment [3] concerns PTSD symptoms. The settings on record: 1 to 4 mg orally at bedtime, alone or with sertraline or prazosin; one to three months after the trauma. From the text:
(§1) At this point the usual natural history of the disease has progressed to the point where patients typically experience recurrent nightmares associated with their traumatic events. […] In addition patients at this stage in the evolution of their disorder have a constellation of daytime symptoms consisting of hyperarousal, hypervigilance, exaggerated startle, and other signs of overactive vigilance behaviors. Also, at this point patients begin to engage in avoidant behaviors such that they actively avoided people and circumstances that might trigger memories of the traumatic event. Lastly, patients begin to experience daytime reexperiencing of their traumatic events in the form of flashbacks. […] These include hyperarousal, hypervigilance, exaggerated startle, and avoidant behavior.

The next experiment deals with fibromyalgia patients. The settings on record: 120 fibromyalgia patients, 10 to 40 mg, 12-week period; cited from earlier work.
The subject of experiment [4] is PTSD symptoms. The settings on record: 1 to 4 mg orally at bedtime, alone or with sertraline or prazosin; PTSD present for greater than three months.
Excerpt: as §1, with “In patients with well-established PTSD that has been present for greater than three months. At” for “At”, “nightmares and daytime flashbacks” for “nightmares”, “with highly vivid memories of the” for “with their”, “traumatic event.” for “traumatic events.”

Where two headings read alike, the source gives them in different places.

As to `COc1cc2nc(N3CCN(C(=O)c4ccco4)CC3)nc(N)c2cc1OC` [prazosin], the sleep entry in experiment [1] is “improves sleep”.
As for `CN(C)CCC=C1c2ccccc2C=Cc2ccccc21` [cyclobenzaprine, 3-(5H-dibenzo[a,d]cyclohepten-5-ylidene)-N,N-dimethyl-1-propanamine], in the experiment on PTSD symptoms [2], the “avoiding behavior or hyperarousal symptoms” value is “No avoiding behavior or hyperarousal symptoms develop”, the “daytime fatigue compared to untreated patients” value is listed as “diminished” and the “sleep quality compared to untreated patients” value was “substantially better in quality”. For the same molecule, the “frequency of nightmares or flashbacks” value in the experiment on PTSD symptoms [2] (three-month interval) is recorded as “declines eventually approaching zero”. Further, in the experiment with PTSD symptoms [3], the “daytime symptoms not associated with sleep (hyperarousal, hypervigilance, exaggerated startle, avoidant behavior)” value is on record as “greatly reduced or eliminated” and the “sleep associated symptomatology (nightmares, distress, insomnia, daytime fatigue, cognitive function)” value is reported as “significant improvements”. In addition, in the experiment with fibromyalgia patients, the pain score entry is on record as “significantly improved”; the quality of sleep result was “significantly improved”; the “total number of tender points and muscle tightness” value is given as “reduction”. In the experiment on PTSD symptoms [4], the “daytime symptoms not associated with sleep (hyperarousal, hypervigilance, exaggerated startle, avoidant behavior)” value is on record as “greatly reduced or eliminated” and the “sleep associated symptomatology (nightmares, distress, insomnia, daytime fatigue, cognitive function)” value was “significant improvements”.

The record behind these values is patent publication US9918948B2, “Methods and compositions for treating symptoms associated with post-traumatic stress disorder using cyclobenzaprine” (TONIX PHARMA HOLDINGS LIMITED, priority 2009, dated 2018).
